Measurements taken from patent US20060193772A1, “Drugs for treating cancer” (priority 2003, published 2006).

System: multiple myeloma cell line, LP-1 cells
Test: LP-1 viable cell number (WST-1), doxorubicin and KM 1468 administration methods (Example 3)
Assay type: cell-based
Conditions: 1 μmol/L doxorubicin, 1 μg/mL KM 1468, cells only = 100%
Method: Multiple myeloma cell line, LP-1 cells (DSMZ ACC41) were seeded in a 96-well culture plate in an amount of 100 μL/well (10,000 cells). Doxorubicin and anti-IGF monoclonal antibody […] were added, and the mixture was cultured at 37° C. for 3 days. The addition of doxorubicin and KM 1468 to the medium was conducted by the following three methods.
Method 1: Cells were cultured in 150 μL of a medium in which doxorubicin was solely added on day 1, and in 200 μL of a medium in which doxorubicin and KM 1468 were added on days 2 and 3.
Method 2: Cells were cultured in 150 μL of a medium in which KM 1468 were solely added on day 1, and in 200 μL of a medium in which doxorubicin and KM 1468 were added on days 2 and 3.
Method 3: Cells were cultured in a medium comprising doxorubicin and KM 1468 (an amount of the medium is 150 μL on day 1 and 200 μL each on days 2 and 3) for three days.
In all of the foregoing methods, doxorubicin and KM 1468 were added so that the final concentrations of doxorubicin and KM 1468 became 1 μmol/L and 1 μg/mL, respectively.
After the culturing, cell proliferation reagent WST-1 (manufactured by Roche) was added in an amount of 20 μL/well, and the mixture was cultured at 37° C. for from 2 to 3 hours. OD450 was measured with microplate reader M-SPmax 250 (manufactured by Molecular Devices). The number of viable cells after the treatment with the agent was expressed as a relative value when OD450 in which cells were solely added was regarded as 100%.

COc1cccc2c1C(=O)c1c(O)c3c(c(O)c1C2=O)C[C@@](O)(C(=O)CO)C[C@@H]3O[C@H]1C[C@H](N)[C@H](O)[C@H](C)O1 [Doxorubicin]
Relative value of cell number (Method 1 group: doxorubicin on day 1, doxorubicin and KM 1468 on days 2 and 3): 40% | Relative value of cell number (Method 2 group: KM 1468 on day 1, doxorubicin and KM 1468 on days 2 and 3): 57% | Relative value of cell number (Method 3 group: doxorubicin and KM 1468 for three days): 44%
